The values that follow come from patent publication US5837728A, “9-cis retinoic acid esters and amides and uses thereof” (priority 1995, dated 1998).

Entries after “also recorded” stand apart in the source; their conditions may differ.

Series [1] concerns sun-damaged, wrinkled, aged skin of the face and forearms. In words: Topical assay for antiaging and antiactinic effects (dermatoheliosis). Type of series: in vivo, human (patients). From the text: Four subjects aged 49 to 73, three females and one male having significant,easily observe, sun-damaged, wrinkled, aged skin of the face and forearms are subjects of a study to determine the effect of topical application of 2-(9-cis-retinoyloxy)-4-methoxyacetophenone in the treatment of dermatoheliosis. The three females had moderately severe sun-damaged skin and wrinkles of the forearms, hands and face. The one person has extremely severe sun damage in these areas as well as multiple actinic keratoses. The four subjects are provided with and applied to their entire faces (omitting the eyelids) and dorsal surface of the right forearm, once daily for 12 to 16 weeks, 0.1% concentration of 2-(9-cis-retinoyloxy)-4-methoxyacetophenone in a hydrophilic cream vehicle. The left forearm of each patient is treated daily with a non-medicated moisturizer of the patients choice.
All subjects are evaluated every 4 weeks through the study for redness, peeling, skin surface texture and wrinkling. Biopsies (using a 4 mm punch) are taken from the dorsal surface of the right upper forearm at the beginning of the study and again from the same area at the end of the study. The biopsies are stained with H & E, Alcian Blue and collagen/elastic stains and compared by a qualified dematopathologist.

The next series deals with skin of rabbits. In words: Topical assay for primary acute dermal irritation. Type of series: in vivo.
For series [2], the system named is Human neonatal foreskin keratinocytes. In words: Growth of human neonatal foreskin keratinocytes (cell number). The conditions noted are these: three days. The series is classed as cell-based. From the text: Human neonatal foreskin keratinocytes and human neonatal foreskin fibroblasts were isolated and grown in monlayer culture. Culture medium for keratinocytes was Keratincyte Growth Medium (KGM) from Clonetics, Inc., San Diego. Calif. The culture medium for fibroblasts was Dulbecco's Modified Eagle's Medium (DMEM) supplemented with non-essential amino acids and 10% fetal bovine serum. The culture medium was obtained from GIBCO, Grand Island, N.Y. and the FBS was from Hyclone Labs, Inc., Logan, Utah.
Cells at passage 2-4 were plated in wells of a 24 well dish at approximately 5×10^4 cells per well in their respective culture medium. Incubation was at 37° C. with 5% CO2. After the cells attached and spread overnight, they were washed two times in serum-free keratincyte basal medium (KBM) and incubated in 1 ml of KBM or in 1 ml of KGM. Compound IV was added in varying concentrations to the wells. […] The cells were incubated for an additional two days for fibroblasts and three days for keratinocytes, and were then harvested and counted.

In another series the test system is photoaged skin. Particulars: cited from earlier work.
Another series concerns rabbit skin. In words: Draize test for irritation (rabbit dermal irritation). The series is classed as in vivo.
The subject of series [3] is epidermal growth factor cell surface receptors. Particulars: in vitro; cited from earlier work.
Another series concerns keratinocytes. Particulars: in vitro; cited from earlier work.
Series [4] relates to partial-thickness skin wounds. The conditions noted are these: cited from earlier work.
Another series has as its system skin wound of rats. Particulars: 1% for 3 days before and 0.1% after the wound; cited from earlier work.
The mark [5] stands for this setting: 0.1% cream, once daily for 12 to 16 weeks.
Setting [6] is: 0.1% retinoic acid hydrophilic cream, 16 weeks.

Procedure for skin of rabbits: Twelve healthy, young, adult, female New Zealand White rabbits (Orycetolagus cuniculus), are used in the study. […] At the start of the study, the animals are in the weight range between 2.0 and 3.0 kilograms, and are approximately 11 weeks of age. Animals selected for the test are not subjected to any previous experimental procedures, and their skin is free from irritation, trauma and disease.
Six animals are treated in this manner.
The application sites are prepared by clipping the skin of the trunk free of hair approximately 24 hours before application of the dose. One application site on each animal is abraded by making minor incisions through the stratum corneum, but not sufficient to disturb the derma (that is, not sufficiently deep to produce bleeding). The second application site is intact skin.
The dose is applied to a small area (approximately 6 cm^2) of skin and covered with a gauze patch which is held in place with Vetrap bandaging. The patches are applied to one intact site and one abraded site per animal. The test substance is kept in contact with the skin for 24 hours. The skin is not rinsed following the 24 hour exposure period.
Animals are observed for signs of erythma and edema 24 and 72 hours after application of the test material. Observations are scored according to the Draize Scale for Scoring Skin Reactions as in Draize, J. H., Dermal Toxicity, Appraisal of the Safety of Chemicals in Foods, Drugs and Cosmetics Dermal Toxicity, pp. 46-59, Association of Food and Drug Officials of the U.S., Topeka, Kans., 1965. […] Animals are weighed at the beginning and at the end of the observation period.

On to `COc1ccc(C(=O)COC(=O)/C=C(C)/C=C/C=C(C)\C=C\C2=C(C)CCCC2(C)C)cc1` [Compound 2, 2-(9-cis-retinoyloxy)-4'-methoxyacetophenone], for which, in series [1] (setting [5]), the “Facial improvement of dermatoheliosis” value is “all show an improvement in their dermatoheliosis; also recorded: Two of the four patients show very significant improvement in facial smoothness, dryness and fine wrinkling; also recorded: Moderate improvement of these parameters are observed in the other two patients”; the “Irritation during antiaging study” value was “No significant irritation is experienced by any patient; also recorded: Very slight pinkness and a feeling of slight tightness in facial skin develops in two patients”. For the same molecule, the “Forearm improvement in surface texture, dryness and fine wrinkling” value in series [1] (0.1% cream, once daily, within two months) was “three show improvement in surface texture (smoothness), surface dryness and fine wrinkling within two months”. Moreover, the “Biopsy differences before and after treatment” value in series [1] (dorsal right forearm, 4 mm punch) is “no significant differences in before treatment and after treatment biopsies”. The “Signs of erythema or edema formation (Draize scale)” value in the series on skin of rabbits (0.5 ml topical, intact and abraded skin, 24 and 72 hours) is recorded as “no signs of erythema or edema formation are evident in any of the 12 test animals”. The Body weight change result in the series with skin of rabbits (beginning vs end of observation period, all 12 animals) was “All 12 animals exhibited a gain in body weight”. In addition, the “Overt signs of toxicity” value with skin of rabbits (rabbit, in vivo) is recorded as “No overt signs of toxicity are evident”.

In the case of `CC1=C(/C=C/C(C)=C/C=C/C(C)=C/C(=O)O)C(C)(C)CCC1` [all-trans-retinoic acid, reference compound], the “Number of keratinocytes, KGM” value in series [2] (0.25 μg/ml) is reported as 24.7 ± 1.7 × 10^4 cells; in series [2] (0.5 μg/ml) it was 17.7 ± 0.8 × 10^4 cells. The “Number of keratinocytes, KMB” value is on record as 13.7 ± 1.6 × 10^4 cells in [2] (0.25 μg/ml), 15.2 ± 0.1 × 10^4 cells in series [2] (0.5 μg/ml) and 12.3 ± 1.0 × 10^4 cells in series [2] (1.0 μg/ml). Also, in the series on photoaged skin (setting [6]), the “Effect on sun damaged skin (Weiss study)” value was “some positive effects on the surface texture and wrinkling of sun damaged facial skin, and on the histology of the epidermal and stratum corneum layers of dorsal forearm skin”. Further, in the series with photoaged skin (setting [6]), the “Irritancy (Weiss study)” value is listed as “moderately severe irritancy level”. Also, the “Patients who experienced dermatitis” value in the series with photoaged skin (Weiss et al.) is 92%. The “Improvement of photoaging of the skin” value in the series on photoaged skin (cream containing 0.1% tretinoin, daily topical) was “could be improved within a 16-week period”. The “Redness, peeling, stinging, burning and dryness” value in the series on photoaged skin (topical tretinoin therapy) is recorded as “consistently experienced by nearly all subjects”. In addition, the “Subjects with dermatitis severe enough to require topical steroids” value with photoaged skin (topical tretinoin therapy) is reported as “Eleven of fifteen subjects”. Further, the “Subjects withdrawn due to severity of dermatitis” value in the series on photoaged skin (topical tretinoin therapy) is given as “Three of fifteen”. For the same molecule, the results for the “Erythema Grade” value in the series on rabbit skin (dose 0.001%), in the series on rabbit skin (dose 0.01%) and in the series with rabbit skin (dose 0.1%) were 0.4, 0.8 and 2.8, respectively. In the series on rabbit skin (rabbit), the “ID50, dermal irritation” value amounted to 0.01%. Besides, in [3], the “Effect on epidermal growth factor activity and receptor binding” value was “increases the mitogenic activity of epidermal growth factor and its binding to its cell surface receptors in vitro”. The “Effect on keratinocyte proliferation and growth” value in the series with keratinocytes is “capacity to stimulate proliferation of quiescent keratinocytes in vitro”. Also, the “Effect on healing when applied after wounding” value in series [4] (applied after wounding) was “deleterious effect on healing”. Also, the Rate of healing in [4] (pre-treated with 0.05% tretinoin cream for 10 days prior to wounding) is listed as 6%. Also, the “Acceleration of healing compared to control group” value in the series on skin wound of rats is given as 18%.
